We go through 1 compound from US5374772A, “Substituted benzoic acids, inhibitors of phospholipases A2” (Hoffmann-LaRoche Inc., priority 1993, dated 1994).

Test [1] deals with myeloperoxidase (MPO) activity, indicator of neutrophil infiltration. Description: TPA mouse ear test, myeloperoxidase activity in ear punches. The class given is in vivo, male CD-1 mice. The conditions noted are these: 0.3 mg topically. As for the experimental part: (§1) For this test, 10 μl of 12-O-tetradecanoylphorbol-13-acetate (TPA), dissolved in a vehicle of pyridine: water: diethyl ether (20:5:75), was applied to the outside of the right ear of 3-4 week old male CD-1 mice (8 animals per group). The test compounds were dissolved in the same vehicle and 10 μl was applied to the inside of the same ear 30 minutes prior to the application of TPA. Ear punches (6 mm) were removed at 6 hours after TPA application, weighed and assayed for myeloperoxidase (MPO) activity as described in the following reference: P. P. Bradley, D. A. Priebat, R. D. Christensen and G. Rothstein, J. Invest. Dermatology 78, 206-209 (1982). The wet weight of the ear biopsy punches is a measure of the ear edema and the level of MPO activity in the ear punches is an indicator of neutrophil infiltration. The data are expressed as percent inhibition of drug-treatedanimals relative to the control group.

Test [2] deals with T1, HSF-PLA2 (extracellular PLA2 obtained from human synovial fluid) (Homo sapiens, UniProt P14555).
T1 construct: extracellular enzyme obtained from human synovial fluid; from tissue; host or cells: pooled human synovial fluid (0.1% v/v in the assay)
T1 sequence (P14555 21-144): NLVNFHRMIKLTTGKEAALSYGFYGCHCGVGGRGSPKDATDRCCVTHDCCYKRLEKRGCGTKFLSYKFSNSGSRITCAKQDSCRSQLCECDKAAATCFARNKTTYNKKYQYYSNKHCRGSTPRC
Kind of test: Assay for Inhibition of HSF-PLA2 In Vitro. The class given is biochemical. The conditions noted are these: given as 50 % inhibition at the given concentration; 14C-oleate-labelled E. coli substrate, pH 7.3, 37° C., 30 minutes; read-out: % Inhib of HSF-PLA2: 50 (concentration) = IC50 (μM concentration that produces 50% inhibition of PLA2 activity). As for the experimental part:
The PLA2 used in this test is the extracellular enzyme obtained from human synovial fluid (HSF-PLA2). The assay for HSF-PLA2 activity was a modification of the described method [Franson R., Dobrow R., Weiss, J., Elsbach P., and […]. Lipid Res., 19, 18-23 (1978)] which was conducted using [1-^14 C]-oleate-labelled E. coli substrate in excess at a final concentration of 20,000 dpm/ml. This was equivalent to 18.2 mM of cell membrane phospholipid phosphorus and 2×10^9 autoclaved E. coli/ml. The optimal conditions which were developed for the assay of HSF-PLA2 inhibitors are summarized as follows. […] The reaction was terminated by the addition of 2.5 ml of chloroform-methanol (1 to 1.5, v/v). The extraction of lipids from the stopped reaction mixture was conducted by the further additions of 0.5 ml of chloroform and 1 ml of water with mixing. […] The extracted lipid residue was redissolved in […] of a solution containing carrier oleic acid (0.2 mg/ml) of […]]). […] This TLC system rapidly (6 minutes) resolved the enzymatically released product, ^14 C-oleic acid, from the unreacted ^14 C-phospholipid substrate. The unsaturated lipids were located on the chromatogram by a brief exposure to iodine vapor. The oleic acid zone (Rf value 0.95) and phospholipid zone (origin) were cut out, chopped into small pieces, shaken with 2 ml of ethanol-water (80 to 20, v/v) and 15 ml of Aquasol and counted for radioactivity. A control incubation of substrate in the absence of HSF-PLA2 was performed in each experiment. The PLA2 activity of the human synovial fluid was corrected for this small control value. […] The specific activity of PLA2 in the pooled human synovial fluid under the optimal assay conditions was 49.2 nmoles [1-^14 C]-oleic acid released hour^-1 mg^-1. The IC50 (μM concentration of test compound that produces 50% inhibition of PLA2 activity) was determined for each test compound.

Test [3] relates to croton oil-induced mouse ear edema. Kind of test: Croton Oil Mouse Ear Edema Test. In kind it is in vivo, male CD-1 mice. Particulars: 1 mg topical, coapplied with croton oil, ear punch weight at 6 hours. As for the experimental part:
The croton oil-induced mouse ear edema test, a model of irritant-induced contact dermatitis, has been used for evaluation of the PLA2 inhibitors by the topical route of administration. This test was carried out as described in the following references:
The major active ingredient in croton oil is the tumor promoter 12-O-tetradecanoylphorbol-13-acetate (TPA) and the topical application of TPA to mouse skin has been reported to cause an increase in epidermal PGE2 production as well as an increase in epidermal cell membrane PLA2 activity. Indomethacin, an inhibitor of prostaglandin synthesis, prevented the TPA-mediated increase in epidermal PGE2 levels as well as the TPA-mediated induction of epidermal cell ornithine decarboxylase. Furthermore, the application of PGE2 to mouse skin countered the inhibitory effect of indomethacin upon TPA-stimulated cellular proliferation.
Twenty five μl of a 1% croton oil solution [dissolved in a mixture of pyridine/water/diethyl ether at a ratio of 5/20/75 (croton oil vehicle)] are applied to the outer side of the right ear of 3-4 week old male CD-1 mice (8 animals per group). The test compounds are dissolved directly in the 1% croton oil solution at various concentrations and coapplied. Control animals receive 25 μl of croton oil vehicle on the right ear. Biopsy punches are removed at 6 hours from the fight ear of the animals using a 6 mm skin trephine (Roboz, Washington, D.C.) and the wet weight of the ear punches is determined. The weight of the biopsy punches is a measure of ear inflammation, primarily edema. The data are expressed as percent inhibition relative to control groups.
Statistical analysis of the mean edema values of the control versus the treated groups is performed using Student's t-test. The significance of changes from the mean value for vehicle-treated (control) animals in the following Tables is indicated as follows: *p<0.05, **p<0.01, ***p<0.005,ns/not significant.

Test [4] relates to TPA-induced mouse ear edema. Kind of test: TPA Induced Mouse Ear Edema Test (ear punch weight). In kind it is in vivo, male CD-1 mice. The conditions noted are these: Mus musculus; 0.3 mg topical, 30 minutes prior to TPA, ear punch weight at 6 hours; read-out: % Inhib of TPA Mouse Ear Edema (0.3 mg). The protocol:
as §1, with “The TPA-induced mouse ear edema test, a model of irritant-induced contact dermatitis is described in the following reference: J. M. Young, B. M. Wagner and […]. Invest. Dermatology 80, 48-52 (1983). For” for “For”, “[…].” for “D. A. Priebat, R. D.”, “drug-[…]” for “drug-treatedanimals”

For test [5], the system named is myeloperoxidase in colonic mucosa. Kind of test: Acetic Acid-Induced Colitis in Rats. In kind it is in vivo, Male rats (Sprague-Dawley). The conditions noted are these: 10 mg/kg orally. The text has this: The rat acetic acid-induced colitis bioassay has been described by J. E. Krawisz, et al. in Amer. J. Proc. Gastro. Col. Rec. Surg. 31:11-18 (1980), and by P. Sharon and W. F. Stenson in Gastroenterology 88, 55-63 (1985) and 86, 453-460 (1984). Acetic acid-induced colitis is characterized by the movement of inflammatory cells into the colon, ,with the number of such cells in the mucosa being measured by the activity of myeloperoxidase, a marker enzyme for these cells. Positive desirable activity is indicated by a reduction in the high levels of myeloperoxidase caused by acetic acid. Male rats (Sprague-Dawley), weighing 150 to 300 g, were pretreated twice daily for two days with either the vehicle (water or dimethylsulfoxide) or the test inhibitor compound suspended in water or dissolved in dimethylsulfoxide and orally administered. […] The colonic mucosa was surgically removed and homogenized in an aqueous buffer at pH 6 with a Tissumizer or similar device and myeloperoxidase was measured in the homogenate using o-phenylenediamine as a chromagen, as described by A. Voller, D. E. Bidwell and A. Bartlett in "The Enzyme Linked Immunosorbent Assay (ELISA)", Zoological Soc., London, 1979, pages 29-30. […]

As to `CCCCCCCCCCCCCCCCCCOc1cc(OCCCCCCc2cccc(O)c2O)cc(C(=O)O)c1` [Example 19, 3-[[6-(2,3-Dihydroxyphenyl)hexyl]oxy]-5-(octadecyloxy) benzoic acid], the “% Inhib of myeloperoxidase in the TPA mouse ear test” value in test [1] stood at 94%. Further, in test [2], the IC50 was 1.1 µM. Also, the “% Inhib of Croton Oil Mouse Ear Edema (1 mg)” value in test [3] is recorded as 76%. Besides, the inhibition in vivo at 0.3 mg in test [4] worked out at 55%. Moreover, the “inhibition of myeloperoxidase (acetic acid-induced colitis)” value in test [5] was 56±17%.
